Values of other authors in US20250375417A1, “OREXIN RECEPTOR 2 (OX2R) AGONIST FOR USE IN NARCOLEPSY TYPE 1 (NT1)” (TAKEDA PHARMACEUTICAL COMPANY LIMITED, priority 2024, published 2025).

Conditions: phase 2 clinical studies of firazorexton; cited from earlier work

Structure (SMILES): CC(C)(O)C(=O)N1CC[C@H](NS(C)(=O)=O)[C@@H]1Cc1cccc(-c2cc(F)cc(F)c2)c1F [firazorexton]
- Liver toxicity: liver toxicity was observed
